Data as given in the CheMixHub ionic liquid set.

Test: xn = mol fraction of the nth substance listed

CCCO + CC[n+]1ccn(CCOC)c1.O=S(=O)([O-])C(F)(F)F
101 kPa, x2 = 0
Details | viscosity [mPa·s]
288.15 K | 2.475
293.15 K | 2.185
298.15 K | 1.937
303.15 K | 1.723
308.15 K | 1.537
313.15 K | 1.377
318.15 K | 1.235

CCCC[n+]1ccn(C)c1.N#C[S-] + CN1CCCC1=O
viscosity [mPa·s], 101 kPa
Details | x1 = 0.0009705 | x1 = 0.001495 | x1 = 0.002117 | x1 = 0.002433 | x1 = 0.003004 | x1 = 0.003507 | x1 = 0.004097 | x1 = 0.00451
288.15 K | 2.139 | 2.145 | 2.153 | 2.158 | 2.163 | 2.166 | 2.172 | 2.178
298.15 K | 1.804 | 1.808 | 1.811 | 1.813 | 1.821 | 1.827 | 1.834 | 1.843
308.15 K | 1.563 | 1.575 | 1.582 | 1.586 | 1.593 | 1.604 | 1.616 | 1.623
318.15 K | 1.295 | 1.305 | 1.311 | 1.317 | 1.322 | 1.327 | 1.337 | 1.349

C[n+]1ccn(CCCCCn2cc[n+](C)c2)c1.O=S(=O)([N-]S(=O)(=O)C(F)(F)F)C(F)(F)F.O=S(=O)([N-]S(=O)(=O)C(F)(F)F)C(F)(F)F + CN1CCCC1=O
viscosity [mPa·s], 101 kPa
Details | 293.15 K | 303.15 K | 313.15 K | 323.15 K | 333.15 K
x1 = 0.3841 | 153.6 | 96 | 60.8 | 41.6 | 25.6
x1 = 0.5551 | 349 | 188.8 | 118.4 | 76.8 | 51.2
x1 = 1 | 1123 | 557 | 310 | 188.8 | 121.6

CC(=O)[O-].CC[n+]1ccn(C)c1 + CN(CCO)CCO
101 kPa
Details | electrical conductivity [S/m] | viscosity [mPa·s]
288.15 K, x1 = 0.2002 | 0.036 | 150.1
288.15 K, x1 = 0.4995 | 0.066 | 174
293.15 K, x1 = 0.4001 | 0.071 | 123.1
298.15 K, x1 = 0.4995 | 0.112 | 97.7
303.15 K, x1 = 0.2002 | 0.065 | 65.1
303.15 K, x1 = 0.5998 | 0.171 | 81.8
303.15 K, x1 = 1 | 0.358 | 102.4
308.15 K, x1 = 0.8999 | 0.384 | 73.4
313.15 K, x1 = 0.4995 | 0.229 | 48.5
313.15 K, x1 = 0.7003 | 0.343 | 52.3
313.15 K, x1 = 0.7998 | 0.401 | 54.1
318.15 K, x1 = 0.1002 | 0.051 | 29.4
318.15 K, x1 = 0.7003 | 0.426 | 42.4
318.15 K, x1 = 0.8999 | 0.598 | 46.3
318.15 K, x1 = 1 | 0.724 | 47.7
323.15 K, x1 = 0.1002 | 0.063 | 23.5
323.15 K, x1 = 1 | 0.883 | 39
328.15 K, x1 = 0.1002 | 0.075 | 18.9
328.15 K, x1 = 0.4995 | 0.414 | 26.5
328.15 K, x1 = 0.5998 | 0.519 | 27.6
333.15 K, x1 = 0.8999 | 1.06 | 25.7
333.15 K, x1 = 1 | 1.25 | 26.7
343.15 K, x1 = 0.4001 | 0.52 | 14.88
348.15 K, x1 = 0.4995 | 0.795 | 13.87
353.15 K, x1 = 0.2002 | 0.331 | 8.91
353.15 K, x1 = 0.5998 | 1.2 | 12.74
353.15 K, x1 = 0.7998 | 1.68 | –

CC[N+](CC)(CC)CC.[Cl-] + CNCCO
101.3 kPa
Details | viscosity [mPa·s]
293.15 K, x1 = 0.1413 | 23.7
303.15 K, x1 = 0.1114 | 14.3
308.15 K, x1 = 0.09139 | 11.4
313.15 K, x1 = 0.1413 | 10.3
318.15 K, x1 = 0.1413 | 8.78
323.15 K, x1 = 0.1114 | 7.1
323.15 K, x1 = 0.1413 | 7.56
328.15 K, x1 = 0.09139 | 5.45

CCCCc1n(S(=O)(=O)O)cc[n+]1S(=O)(=O)O.O=C([O-])C(F)(F)F + CO
electrical conductivity [S/m], 101 kPa
Details | x1 = 0.0104 | x1 = 0.0205 | x1 = 0.02551
298.15 K | 1.59 | 2.16 | –
308.15 K | – | – | 2.28

CC[n+]1ccn(C)c1C.O=S(=O)([N-]S(=O)(=O)C(F)(F)F)C(F)(F)F + COC(=O)OC
viscosity [mPa·s], 101.3 kPa
Details | 288.15 K | 293.15 K | 298.15 K | 303.15 K | 308.15 K | 313.15 K
x1 = 0.002023 | 0.685 | 0.64 | 0.601 | 0.564 | 0.532 | 0.502
x1 = 0.003635 | 0.702 | 0.655 | 0.613 | 0.576 | 0.542 | 0.512
x1 = 0.004511 | 0.715 | 0.668 | 0.625 | 0.589 | 0.556 | 0.525
x1 = 0.006328 | 0.731 | 0.682 | 0.637 | 0.599 | 0.563 | 0.531
x1 = 0.007386 | 0.745 | 0.694 | 0.65 | 0.609 | 0.573 | 0.541
x1 = 0.008644 | 0.76 | 0.706 | 0.66 | 0.618 | 0.58 | 0.548
x1 = 0.01069 | 0.79 | 0.73 | 0.681 | 0.638 | 0.603 | 0.569
x1 = 0.01174 | 0.798 | 0.741 | 0.691 | 0.646 | 0.607 | 0.571
x1 = 0.01299 | 0.815 | 0.757 | 0.705 | 0.66 | 0.619 | 0.582
x1 = 0.01405 | 0.825 | 0.766 | 0.714 | 0.666 | 0.625 | 0.588
x1 = 0.01538 | 0.844 | 0.782 | 0.728 | 0.68 | 0.637 | 0.599
x1 = 0.01591 | 0.848 | 0.786 | 0.731 | 0.683 | 0.639 | 0.601
x1 = 0.01645 | 0.854 | 0.791 | 0.736 | 0.687 | 0.643 | 0.605
x1 = 0.01685 | 0.86 | 0.796 | 0.74 | 0.691 | 0.647 | 0.608
x1 = 0.01703 | 0.864 | 0.8 | 0.744 | 0.694 | 0.651 | 0.611
x1 = 0.02124 | 0.91 | 0.841 | 0.781 | 0.727 | 0.681 | 0.639
x1 = 0.02489 | 0.946 | 0.873 | 0.81 | 0.755 | 0.706 | 0.662
x1 = 0.02663 | 0.965 | 0.891 | 0.826 | 0.771 | 0.72 | 0.676
x1 = 0.0275 | 0.978 | 0.903 | 0.837 | 0.78 | 0.729 | 0.683
x1 = 0.03106 | 1.005 | 0.928 | 0.86 | 0.801 | 0.75 | 0.702
x1 = 0.03264 | 1.017 | 0.939 | 0.871 | 0.811 | 0.759 | 0.711
x1 = 0.03671 | 1.052 | 0.972 | 0.902 | 0.839 | 0.784 | 0.735
x1 = 0.04003 | 1.084 | 1.001 | 0.928 | 0.864 | 0.807 | 0.756
x1 = 0.04547 | 1.132 | 1.046 | 0.97 | 0.903 | 0.843 | 0.79
x1 = 0.04804 | 1.154 | 1.065 | 0.989 | 0.92 | 0.859 | 0.805
x1 = 0.05983 | 1.271 | 1.171 | 1.086 | 1.01 | 0.942 | 0.881

OCC(F)(F)F + COP(=O)([O-])OC.Cn1cc[n+](C)c1
viscosity [mPa·s], 101 kPa
Details | 298.15 K | 333.15 K
x2 = 0.4904 | 42.9 | –
x2 = 0.803 | 158.2 | 31.5

CCCO + CS(=O)(=O)[O-].C[N+](C)(CCO)CCO
101 kPa, x2 = 0
Details | viscosity [mPa·s]
298.15 K | 1.95
303.15 K | 1.73
308.15 K | 1.545
313.15 K | 1.383
318.15 K | 1.247
323.15 K | 1.136

CC(=O)[O-].CC[n+]1ccn(C)c1 + CS(C)=O
298.1 K, 100 kPa
Details | electrical conductivity [S/m]
x1 = 0.108 | 0.94
x1 = 0.653 | 0.65

CC[NH+](CC)CC.O=S(=O)([O-])O + CS(C)=O
101 kPa
Details | viscosity [mPa·s]
298.15 K, x1 = 0.011 | 3.84
298.15 K, x2 = 0.0244 | 228
298.15 K, x2 = 0.199 | 178
298.15 K, x2 = 0.9539 | 9.02
303.15 K, x1 = 0.011 | 3.01
303.15 K, x2 = 0.653 | 40.58
308.15 K, x2 = 0.2473 | 97.6
308.15 K, x2 = 0.4004 | 74.6

CC[n+]1ccn(C)c1.CS(=O)(=O)[O-] + CS(C)=O
101 kPa, x1 = 0.3333
Details | viscosity [mPa·s]
283.15 K | 5.66
288.15 K | 5.04
293.15 K | 4.47
298.15 K | 3.94
303.15 K | 3.47
308.15 K | 3.04
313.15 K | 2.66
318.15 K | 2.33
323.15 K | 2.05
328.15 K | 1.81
333.15 K | 1.63
338.15 K | 1.49
343.15 K | 1.4
348.15 K | 1.36
353.15 K | 1.33

CCCO + C[C@H](N)C(=O)[O-].C[N+](C)(C)CCO
100 kPa, x2 = 0
Details | viscosity [mPa·s]
288.12 K | 2.19
289.34 K | 2.13
290.54 K | 2.07
291.73 K | 2
292.91 K | 1.95
294.09 K | 1.89
295.27 K | 1.84
296.45 K | 1.78
297.63 K | 1.73
298.8 K | 1.68
299.98 K | 1.63
301.16 K | 1.58
302.33 K | 1.52
303.51 K | 1.48
304.68 K | 1.43
305.86 K | 1.38
307.04 K | 1.34
308.21 K | 1.29

CC(=O)[O-].CC[n+]1ccn(C)c1 + Cn1ccnc1 + CCOC(C)=O
298.15 K, 101 kPa, x1 = 1, x2 = 0
Details | electrical conductivity [S/m] | viscosity [mPa·s]
– | 0.297 | 133.9

CCCC[n+]1ccn(C)c1.N#C[N-]C#N + F[B-](F)(F)F.[Li+]
101 kPa, x1 = 1
Details | electrical conductivity [S/m]
288.15 K | 0.596
298.15 K | 0.925
333.15 K | 2.77

CCCC[n+]1ccn(C)c1.N#C[N-]C#N + F[P-](F)(F)(F)(F)F.[Li+]
101 kPa, x1 = 1
Details | electrical conductivity [S/m]
288.15 K | 0.596
298.15 K | 0.925
333.15 K | 2.77

CC(=O)[O-].CC[n+]1ccn(C)c1 + N#C[S-].[Na+]
101 kPa, x2 = 0
Details | electrical conductivity [S/m] | viscosity [mPa·s]
303.15 K | 0.374 | 93.6
313.15 K | 0.587 | 55.5
